Data published in patent US20160361314A1, “COMBINATION OF AN ALK INHIBITOR AND A CDK INHIBITOR FOR THE TREATMENT OF CELL PROLIFERATIVE DISEASES” (NOVARTIS AG, priority 2013, published 2016).
Where two headings read alike, the source gives them in different places.

Key:
[1] = test system: SHSY5Y neuroblastoma cells (F1174L); assay: xCELLigence in vitro growth inhibition and Chou-Talalay combination index; assay type: cell-based; settings: Homo sapiens, SH-SY5Y, single agent
Description: (§1) The concentration dependence of the anti-proliferation effect for both combination partners, first alone and then in combination were measured using the xCELLigence system. CI for each of the treatments was computed by CalcuSyn v2 software (Biosoft, MO).
(§2) In vitro inhibitory activity was determined in five (5) neuroblastoma cell lines with a 96-well Real-Time Cell Electronic Sensing xCELLigence system (ACEA, San Diego, Calif.) which measures a “cell index”. Cell index is derived from alterations in electrical impedance as cells interact with the biocompatible microelectrode surface in each well to measure substrate adherent proliferation. […] After 24 hours, the plated cells were treated in triplicate with the test compound, each dose as indicated or with DMSO vehicle control. […] At 72 hours after drug exposure, the cell index was recorded.
(§3) The IC50 was calculated using GraphPad Prism 5.0 four parameter variable slope fitting. These values were used in dosing of the combination study which follows.
(§4) Drug combination effects and quantification of synergy were determined using the Chou-Talalay combination index method (Trends Pharmacol Sci 4, 450-454) and CalcuSyn v2 software (Biosoft, MO) in four neuroblastoma cell lines. Cells were plated and in vitro proliferation was measured using the xCELLigence system as described above.
(§5) The anti-proliferation potency of each individual agent was estimated by the median-effect dose, Dm. […] Fa=0 is determined based on DMSO control by the dose, and Fa=1 is a full response (no viable cells left) and. • Fu: fraction unaffected by dose where fu=1−fa.
(§6) The effect of combination drug effects was determined utilizing the combination index (CI) as defined by Chou according to the following equation:
(§7) where (Dx)1 and (Dx)2 are the concentrations of compounds D1 and D2 needed to produce a given level of anti-proliferative effect when used individually, whereas (D)1 and (O)2 are their concentrations that produce the same anti-proliferative effect when used in combination. The combination index is a quantitative measure of drug interaction defined as an additive effect (CI=1), antagonism (CI>1), or synergy (CI<1). Typically, a CI range, as used herein, is used to assess synergy. A combination index of 0.9-1.1 indicates additive interaction, values below 0.9 indicate synergism, and values over 1.1 indicate antagonism. The follow is a description of the CI ranges: • <0.1+++++ Very strong synergism • 0.1-0.3++++ Strong synergism • 0.3-0.7+++ Synergism • 0.7-0.85++ Moderate synergism • 0.85-0.90+ Slight synergism • 0.90-1.10± Nearly additive • 1.10-1.20− Slight antagonism • 1.20-1.45−− Moderate antagonism
(§8) The combination index was used to assess the Dose-Reduction Index (DRI) (Chou and Chou, 1988), where:
CI=(D)1/(Dx)1+(D)2/Dx)2=1/(DRI)1+1/(DRI)2 […]

[2] = test system: SKBE2C neuroblastoma cells (WT); assay: xCELLigence in vitro growth inhibition (IC50, Dm); assay type: cell-based; settings: Homo sapiens, Neuroblastoma cell, single agent
Description: In vitro inhibitory activity was determined in five (5) neuroblastoma cell lines with a 96-well Real-Time Cell Electronic Sensing xCELLigence system (ACEA, San Diego, Calif.) which measures a “cell index”. Cell index is derived from alterations in electrical impedance as cells interact with the biocompatible microelectrode surface in each well to measure substrate adherent proliferation. Depending on the growth kinetics, the following cell densities were plated per well: NB1643: 20,000; SHSY5Y: 6,000; SKBE2C:10,000; NBEBC1: 11,000; NB1691: 30,000. After 24 hours, the plated cells were treated in triplicate with the test compound, each dose as indicated or with DMSO vehicle control. […] At 72 hours after drug exposure, the cell index was recorded.
The IC50 was calculated using GraphPad Prism 5.0 four parameter variable slope fitting.
as §4, §5

[3] = test system: NB1643 (R1275Q) human neuroblastoma cells; assay: ApoTox-Glo Triplex assay, viability and caspase 3/7 apoptosis; assay type: cell-based; settings: 72 hours, 1/4 to 4 times IC50, equipotent ratio
Description: The effect of treatment with the combinations of the invention on cell viability and apoptosis were evaluated in three human neuroblastoma cell lines: NB1643 (R1275Q), SH-SY5Y (F1174L) and EBC1 (WT) using the ApoTox-Glo Triplex assay. For confirmation, the treatment effect on cell viability was also evaluated in NB1643 (R1275Q) using the CellTitre-Glo (CTG) Luminescent Cell Viability assay. The assays were described, infra.
The test mixtures were evaluated by 72 hours after dosing, and the results were plotted in FIGS. 11A-C, 12A-C, 13A-C and 14A-C.
In vitro cell viability and Caspase-Glo 3/7 were simultaneously assayed using the ApoTox-Glo Triplex Assay (Promega, Calif.) in three neuroblastoma cell lines. […] After 72 hours of drug exposure, the fluorogenic substrate GF-AFC was added. The test mixture was incubated for 10 minutes and AFC fluorescence was measured at 380-400nm excitation and 505 nm emission.
Following measurement of live cell fluorescence, a luminogenic Caspase-Glo 3/7 substrate and luciferase was added to the same wells. Luminescence was measured after a 30 minutes incubation period. Luciferin is released following cleavage of the substrate by caspase-3/7, and thereby the luminescent signal is proportional to caspase activity.

[4] = test system: NB1643 neuroblastoma cells (R1275Q); assay: xCELLigence in vitro growth inhibition and Chou-Talalay combination index; settings: for IC50: Homo sapiens; for Dose Reduction Index (DRI, from calculations) / Drug alone dose giving Fa (calculated) / Dose Reduction Index (DRI) / Drug alone dose giving Fa: NB1643; for Dose Reduction Index (DRI, from calculations) / Drug alone dose giving Fa (calculated): Table 7; for Dose Reduction Index (DRI): A1 and B co-treatment
Description: as §1, §2, §3, §4, §5, §6, §7, §8
CI=(D)1/(Dx)1+(D)2/Dx)2=1/(DRI)1+1/(DRI)2
The DRI estimates how much the dose of each drug can be reduced when synergistic drugs are given in combination, while still achieving the same effect size as each drug administered individually.

[5] = read-out: Dm (median-effect dose)
[6] = NB-1643, read-out: Dm (median-effect dose)
[7] = Fa 0.51, Table 6, from experimental values
[8] = Fa 0.75, Table 6, from experimental values
[9] = Fa 0.83, Table 6, from experimental values
[10] = Fa 0.9, first of two Fa 0.9 lines, Table 6
[11] = Fa 0.9, second of two Fa 0.9 lines, Table 6

Cc1cc(Nc2ncc(Cl)c(Nc3ccccc3S(=O)(=O)C(C)C)n2)c(OC(C)C)cc1C1CCNCC1 [Compound A1, 5-chloro-N2-(2-isopropoxy-5-methyl-4-(piperidin-4-yl)phenyl)-N4-[2-(propane-2-sulfonyl)-phenyl]-pyrimidine-2,4-diamine]
IC50 ([1]; 72 hours, read-out: IC50): 963 nM
IC50 [1, 5]: 1500 nM
IC50 ([2]; 72 hours, read-out: IC50): 603 nM
IC50 [2, 5]: 350 nM
Cell viability (cell death) and apoptosis [3]: effective in causing cell death and apoptosis
IC50 ([4]; NB-1643, 72 h): 222 nM
IC50 [4, 6]: 173 nM
Dose Reduction Index (DRI, from calculations) ([4]; Fa 0.020): 3.099
Drug alone dose giving Fa (calculated) ([4]; Fa 0.020): 0.0007501 µM
Dose Reduction Index (DRI, from calculations) ([4]; Fa 0.050): 3.455
Drug alone dose giving Fa (calculated) ([4]; Fa 0.050): 0.0028193 µM
Dose Reduction Index (DRI, from calculations) ([4]; Fa 0.100): 3.764
Drug alone dose giving Fa (calculated) ([4]; Fa 0.100): 0.0080106 µM
Dose Reduction Index (DRI, from calculations) ([4]; Fa 0.150): 3.969
Drug alone dose giving Fa (calculated) ([4]; Fa 0.150): 0.015292 µM
Dose Reduction Index (DRI, from calculations) ([4]; Fa 0.200): 4.130
Drug alone dose giving Fa (calculated) ([4]; Fa 0.200): 0.0248814 µM
Dose Reduction Index (DRI, from calculations) ([4]; Fa 0.250): 4.269
Drug alone dose giving Fa (calculated) ([4]; Fa 0.250): 0.0371953 µM
Dose Reduction Index (DRI, from calculations) ([4]; Fa 0.300): 4.394
Drug alone dose giving Fa (calculated) ([4]; Fa 0.300): 0.0528478 µM
Dose Reduction Index (DRI, from calculations) ([4]; Fa 0.350): 4.510
Drug alone dose giving Fa (calculated) ([4]; Fa 0.350): 0.0727063 µM
Dose Reduction Index (DRI, from calculations) ([4]; Fa 0.400): 4.622
Drug alone dose giving Fa (calculated) ([4]; Fa 0.400): 0.0979951 µM
Dose Reduction Index (DRI, from calculations) ([4]; Fa 0.450): 4.732
Drug alone dose giving Fa (calculated) ([4]; Fa 0.450): 0.130469 µM
Dose Reduction Index (DRI, from calculations) ([4]; Fa 0.500): 4.842
Drug alone dose giving Fa (calculated) ([4]; Fa 0.500): 0.1727061 µM
Dose Reduction Index (DRI) [4, 7]: 3.321
Drug alone dose giving Fa [4, 7]: 0.1826374 µM
Dose Reduction Index (DRI, from calculations) ([4]; Fa 0.550): 4.954
Drug alone dose giving Fa (calculated) ([4]; Fa 0.550): 0.2286167 µM
Dose Reduction Index (DRI, from calculations) ([4]; Fa 0.600): 5.072
Drug alone dose giving Fa (calculated) ([4]; Fa 0.600): 0.3043766 µM
Dose Reduction Index (DRI, from calculations) ([4]; Fa 0.650): 5.198
Drug alone dose giving Fa (calculated) ([4]; Fa 0.650): 0.4102451 µM
Dose Reduction Index (DRI, from calculations) ([4]; Fa 0.700): 5.336
Drug alone dose giving Fa (calculated) ([4]; Fa 0.700): 0.564402 µM
Dose Reduction Index (DRI) [4, 8]: 7.224
Drug alone dose giving Fa [4, 8]: 0.8019141 µM
Dose Reduction Index (DRI, from calculations) ([4]; Fa 0.750): 5.492
Drug alone dose giving Fa (calculated) ([4]; Fa 0.750): 0.8019141 µM
Dose Reduction Index (DRI, from calculations) ([4]; Fa 0.800): 5.676
Drug alone dose giving Fa (calculated) ([4]; Fa 0.800): 1.1987842 µM
Dose Reduction Index (DRI) [4, 9]: 7.135
Drug alone dose giving Fa [4, 9]: 1.5839055 µM
Dose Reduction Index (DRI, from calculations) ([4]; Fa 0.850): 5.907
Drug alone dose giving Fa (calculated) ([4]; Fa 0.850): 1.9505238 µM
Dose Reduction Index (DRI) [4, 10]: 8.386
Drug alone dose giving Fa [4, 10]: 3.7234705 µM
Dose Reduction Index (DRI) [4, 11]: 4.193
Drug alone dose giving Fa [4, 11]: 3.7234705 µM
Dose Reduction Index (DRI, from calculations) ([4]; Fa 0.900): 6.229
Drug alone dose giving Fa (calculated) ([4]; Fa 0.900): 3.7234705 µM
Dose Reduction Index (DRI, from calculations) ([4]; Fa 0.950): 6.786
Drug alone dose giving Fa (calculated) ([4]; Fa 0.950): 10.58 µM
Dose Reduction Index (DRI, from calculations) ([4]; Fa 0.990): 8.200
Drug alone dose giving Fa (calculated) ([4]; Fa 0.990): 106.3 µM

CN(C)C(=O)c1cc2cnc(Nc3ccc(N4CCNCC4)cn3)nc2n1C1CCCC1 [Compound B, 7-cyclopentyl-N,N-dimethyl-2-((5-(piperazin-1-yl)pyridin-2-yl)amino)-7H-pyrrolo[2,3-d]pyrimidine-6-carboxamide]
IC50 ([1]; 72 hours, read-out: IC50): 111 nM
IC50 [1, 5]: 1500 nM
IC50 ([2]; 72 hours, read-out: IC50): 146 nM
IC50 [2, 5]: 446 nM
Cell viability (cell death) and apoptosis [3]: only slightly effective
IC50 ([4]; NB-1643, 72 h): 750 nM
IC50 [4, 6]: 788 nM
Drug alone dose giving Fa (calculated) ([4]; Fa 0.020): 0.0013507 µM
Drug alone dose giving Fa (calculated) ([4]; Fa 0.050): 0.0063668 µM
Drug alone dose giving Fa (calculated) ([4]; Fa 0.100): 0.021628 µM
Drug alone dose giving Fa (calculated) ([4]; Fa 0.150): 0.0461139 µM
Drug alone dose giving Fa (calculated) ([4]; Fa 0.200): 0.0815448 µM
Drug alone dose giving Fa (calculated) ([4]; Fa 0.250): 0.1305781 µM
Drug alone dose giving Fa (calculated) ([4]; Fa 0.300): 0.1970133 µM
Drug alone dose giving Fa (calculated) ([4]; Fa 0.350): 0.2862422 µM
Drug alone dose giving Fa (calculated) ([4]; Fa 0.400): 0.4060079 µM
Drug alone dose giving Fa (calculated) ([4]; Fa 0.450): 0.5676688 µM
Drug alone dose giving Fa (calculated) ([4]; Fa 0.500): 0.78836 µM
Drug alone dose giving Fa [4, 7]: 0.8417031 µM
Drug alone dose giving Fa (calculated) ([4]; Fa 0.550): 1.0948487 µM
Drug alone dose giving Fa (calculated) ([4]; Fa 0.600): 1.5307866 µM
Drug alone dose giving Fa (calculated) ([4]; Fa 0.650): 2.1712783 µM
Drug alone dose giving Fa (calculated) ([4]; Fa 0.700): 3.1546674 µM
Drug alone dose giving Fa [4, 8]: 4.7596923 µM
Drug alone dose giving Fa (calculated) ([4]; Fa 0.750): 4.7596923 µM
Drug alone dose giving Fa (calculated) ([4]; Fa 0.800): 7.6217203 µM
Drug alone dose giving Fa [4, 9]: 10.56 µM
Drug alone dose giving Fa (calculated) ([4]; Fa 0.850): 13.48 µM
Drug alone dose giving Fa [4, 10]: 28.74 µM
Drug alone dose giving Fa [4, 11]: 28.74 µM
Drug alone dose giving Fa (calculated) ([4]; Fa 0.900): 28.74 µM
Drug alone dose giving Fa (calculated) ([4]; Fa 0.950): 97.62 µM
Drug alone dose giving Fa (calculated) ([4]; Fa 0.990): 1455 µM
